In ChEMBL document CHEMBL1152676, “Combretastatin-like chalcones as inhibitors of microtubule polymerization. Part 1: synthesis and biological evaluation of antivascular activity” (Bioorg Med Chem, 2009):

Tests used:
K562 [1] = assay: Antiproliferative activity against human K562 cells after 5 days by MTT assay; assay type: functional, cell-based
[2] = Inhibition of tubulin assembly by Woods method
K562 [3] = assay: Cell cycle arrest in human K562 cells assessed as accumulation at G2/M phase at 20 nM after 24 hrs by propidium iodide staining-based flow cytometry; assay type: functional
K562 [4] = assay: Cell cycle arrest in human K562 cells assessed as accumulation at S phase at 20 nM after 24 hrs by propidium iodide staining-based flow cytometry; assay type: functional
K562 [5] = assay: Cell cycle arrest in human K562 cells assessed as accumulation at G0/G1 phase at 20 nM after 24 hrs by propidium iodide staining-based flow cytometry; assay type: functional
[6] = Displacement of [3H]colchicine from tubulin assessed as bound colchicine at […] incubated in dark for 2 hrs by scintillation spectroscopy

| IC50 (K562 [1]; Homo sapiens, K562, 120 h) | SMILES | further results |
| --- | --- | --- |
| 4 µM | COc1ccc(/C=C/C(=O)c2cc(OC)c(OC)c(OC)c2)cc1[N+](=O)[O-] | – |
| 4.8 µM | COc1ccc(C(=O)/C=C/c2cc(F)c(OC)c(F)c2)c(OC)c1OC | IC50 [2]: 31 µM; Activity (K562 [3]): 46%; Activity (K562 [4]): 3%; Activity (K562 [5]): 51% |
| 5.6 µM | COc1cc(/C=C/C(=O)c2ccc3c(c2)OCCO3)cc(OC)c1OC | – |
| – | COc1ccc(C(=O)/C=C/c2ccc(OC)c(OP(=O)(O)O)c2)cc1 | IC50 (K562 [1]; k562): 0.3 µM |
| 0.3 µM | COc1ccc(/C=C/C(=O)c2cc(OC)c(OC)c(OC)c2)cc1 | – |
| 4 µM | COc1ccc(/C=C/C(O)c2cc(OC)c(OC)c(OC)c2)cc1 (stereo not drawn) | – |
| 2.5 µM | COc1cc(/C=C(\C)C(=O)c2cc(OC)c(OC)c(OC)c2)cc(OC)c1OC | – |
| 0.22 µM | CCCO/C(=C\c1cc(F)c(OC)c(F)c1)C(=O)c1cc(OC)c(OC)c(OC)c1 | – |
| 6.2 µM | COc1cc(C(=O)/C=C/c2cc(F)c(OC)c(F)c2)cc(OC)c1OC | IC50 [2]: 12 µM; Activity (K562 [3]): 61%; Activity (K562 [4]): 19%; Activity (K562 [5]): 20% |
| 7.2 µM | COc1ccc(OC)c(/C=C/C(=O)c2c(OC)cc(OC)cc2OC)c1 | – |
| 2.7 µM | COc1ccc(/C=C/C(=O)c2ccc(OC)cc2OC)cc1 [METOCHALCONE] | – |
| 15 µM | COc1ccc([C@H]2O[C@@H]2C(=O)c2ccc(C)cc2)cc1 (racemic) | – |
| 1 µM | COc1ccc(CCC(O)c2cc(OC)c(OC)c(OC)c2)cc1O (stereo not drawn) | – |
| 8 µM | O=C(/C=C/c1ccc2c(c1)OCO2)c1ccc2c(c1)OCCO2 | – |
| 12 µM | Cc1ccc(C(=O)[C@H]2O[C@@H]2c2ccc(C)cc2)cc1 (racemic) | – |
| 3.8 µM | COc1cc(C(=O)/C=C/c2ccc(Cl)cc2Cl)cc(OC)c1OC | – |
| 0.01 µM | COc1ccc(/C=C/C(=O)c2ccc(OC)c(OC)c2OC)cc1O | IC50 [2]: 0.45 µM; Activity (K562 [3]): 40%; Activity (K562 [4]): 28%; Activity (K562 [5]): 32% |
| 12 µM | COc1ccc(C(=O)CCc2cc(OC)c(OC)c(OC)c2)cc1 | – |
| 7.1 µM | COc1ccc(/C=C/C(=O)c2ccc3c(c2)OCO3)cc1OC | – |
| 0.05 µM | COc1cc(C(=O)/C(C)=C/c2cc(F)c(OC)c(F)c2)cc(OC)c1OC | IC50 [2]: 2.4 µM; Activity (K562 [3]): 72%; Activity (K562 [4]): 24%; Activity [6]: 25%; Activity (K562 [5]): 4% |
| 9.9 µM | COc1cc(C(=O)/C=C/c2ccc(OCc3ccccc3)cc2)cc(OC)c1OC | – |

| IC50 (K562 [1]; Homo sapiens, K562, 120 h) | SMILES | further results |
| --- | --- | --- |
| 1.2 µM | COc1cc(C(=O)/C=C/c2ccc(O)c(O)c2)cc(OC)c1OC | – |
| 0.3 µM | COc1ccc(/C=C/C(=O)c2cc(OC)c(OC)c(OC)c2)cc1OC | IC50 [2]: > 25 µM; Activity (K562 [3]): 44%; Activity (K562 [4]): 25%; Activity [6]: 62%; Activity (K562 [5]): 31% |
| 3.7 µM | COc1cc(C(=O)[C@H]2O[C@@H]2c2cc(OC)c(OC)c(OC)c2)cc(OC)c1OC (relative stereo) | – |
| 9.7 µM | COc1ccc(C(=O)/C=C/c2ccc(Cl)cc2)c(O)c1 | – |
| 4 µM | COc1ccc(C(=O)/C=C/c2cc(OC)ccc2OC)c(Cl)c1 | – |
| 0.0026 µM | CCO/C(=C\c1ccc(OC)c(O)c1)C(=O)c1cc(OC)c(OC)c(OC)c1 | – |
| 1.5 µM | COc1cc(/C=C/C(=O)c2cc(OC)c(OC)c(OC)c2)cc(OC)c1OC | – |
| 2.2 µM | COc1ccc(/C=C/C(=O)c2ccc(OC)c(OC)c2)cc1OC | – |
| > 30 µM | COc1ccc(C(=O)[C@H]2O[C@@H]2c2ccc(C)cc2)cc1 (relative stereo) | – |
| 5.1 µM | O=C(/C=C/c1ccc2c(c1)OCO2)c1ccc(F)cc1 | – |
| 0.23 µM | CCO/C(=C\c1cc(F)c(OC)c(F)c1)C(=O)c1cc(OC)c(OC)c(OC)c1 | – |
| 10 µM | COc1ccc(CCC(=O)c2cc(OC)c(OC)c(OC)c2)cc1 | – |
| 1.5 µM | COc1cc(C(=O)/C=C/c2ccc(Cl)cc2)cc(OC)c1OC | – |
| 0.5 µM | COc1ccc(CCCc2cc(OC)c(OC)c(OC)c2)cc1 | – |
| 9.9 µM | COc1ccc(/C=C/C(=O)c2ccc(O)cc2)cc1 | – |
| 1.5 µM | COc1ccc(/C=C/C(=O)c2ccc(C)cc2)cc1O | – |
| 20 µM | COc1ccc(/C=C/C(=O)c2ccc(C)cc2)cc1 | – |
| 0.35 µM | COc1ccc(/C=C/C(=O)c2ccc(OC)c(OC)c2OC)cc1F | IC50 [2]: 7.9 µM; Activity (K562 [3]): 49%; Activity (K562 [4]): 14%; Activity (K562 [5]): 37% |
| 0.3 µM | COc1ccc(/C=C/C(=O)c2ccc(OC)c(OC)c2OC)cc1 | – |
| 0.6 µM | COc1ccc(CC(C)C(O)c2cc(OC)c(OC)c(OC)c2)cc1O (stereo not drawn) | – |
| 6.4 µM | COc1ccc(OC)c(/C=C/C(=O)c2ccc3c(c2)OCO3)c1 | – |
